Molecular target: T1, human α7 nAChR (Homo sapiens, UniProt P36544)
T1 construct: gene CHRNA7; full-length receptor, cRNA from pMXT vector, Xenopus laevis oocytes; homomeric pentamer
Assay: two-electrode voltage clamp, Xenopus oocytes
Format: cell-based

T1 sequence (P36544 23-502): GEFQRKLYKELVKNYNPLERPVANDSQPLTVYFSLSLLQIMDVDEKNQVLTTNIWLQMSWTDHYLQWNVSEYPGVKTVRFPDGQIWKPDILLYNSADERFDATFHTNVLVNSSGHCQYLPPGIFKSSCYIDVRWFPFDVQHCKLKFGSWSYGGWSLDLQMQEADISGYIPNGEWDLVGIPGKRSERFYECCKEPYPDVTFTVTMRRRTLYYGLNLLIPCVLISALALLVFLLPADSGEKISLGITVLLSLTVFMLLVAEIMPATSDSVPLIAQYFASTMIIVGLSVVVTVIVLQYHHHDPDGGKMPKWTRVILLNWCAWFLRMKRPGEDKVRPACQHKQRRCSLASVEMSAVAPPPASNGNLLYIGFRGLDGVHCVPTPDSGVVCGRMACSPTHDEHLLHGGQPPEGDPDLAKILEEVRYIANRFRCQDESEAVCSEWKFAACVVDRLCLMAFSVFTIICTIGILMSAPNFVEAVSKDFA

IC50: 26.7 ± 1.6 µM
Compound: O=C(Nc1ccc(Br)cn1)[C@@H]1CCCNC1 [CU2017, N-(5-bromopyridin-2-yl)piperidine-3-carboxamide]
